Assay type in all cases: in vivo, rat
For experiment [1], the system named is microglia. In words: Immunohistochemistry and cell counting of microglia (Iba1, Ed1/Cd68) in CMV-infected pup brain. The conditions noted are these: P1, lateral ventricular area; per os to dam E0 to birth; CMV untreated 42.74%, MEM 14.28%.
Method: Immunohistochemistry experiments were carried out on coronal brain slices (50-100 μm, vibratome, Microm; 14 μm, cryostat, Leica) as described previously (9) with the following primary (anti-Iba1: 1/500, Wako; anti-Cd68, Ed1 clone: 1/200, Millipore) and secondary (Alexa Fluor 568 or 647-conjugated goat anti-rabbit or anti-mouse IgGs; Life Technologies) antibodies. Hoescht 33258 (1:2000, Sigma) was used for nuclei staining.
For cell counting analyses, at least three adjacent brain sections were analyzed throughout the entire z-dimension for each sample using confocal microscopy. […] Cells were counted manually in each brain with Cell Profiler cell image analysis software (Broad Institute Cambridge, Mass., USA). For each channel of stack images, mean image intensity was measured using “MeasureImageIntensity” module and cells were identified with “IdentifyPrimaryObjects” module, in which Min and Max typical diameter of objects was set between 20 and 80 pixel units, respectively, and threshold was corrected by the mean intensity measured previously. Then, using mask images generated with the aforementioned module, colocalization between channels was evaluated with “RelateObjects” and “MaskObjects” in order to determine the number of overlapping objects. Finally, data were exported to a spreadsheet containing the number of quantified cells for each staining and of colocalizations. […]
The subject of experiment [2] is CMV-infected pups. In words: Postnatal survival of pups infected with CMV in utero. As for the experimental part: (§1) Wistar rats (Janvier Labs, France) were raised and mated at INMED Post Genomic Platform (PPGI) animal facility. Rat cytomegalovirus (rat CMV) recombinant Maastricht strain (RCMV-Δ145-147-gfp) with a green fluorescent protein (GFP) expression cassette, and its production, purification and titration, were reported previously (17). In utero icv injections were performed at E15 as previously described (9,18) in embryos from timed pregnant rats that were anaesthetized with ketamine (100 mg/kg)/xylazine (10 mg/kg). […] Microglia status was modified in the embryos in vivo with doxycycline per os given to the mother throughout pregnancy (200 mg/kg in food pellet chow, Bioserv).
Data were expressed as means ±s.e.m. unless otherwise stated. Non-parametric Mann Whitney test (two-tailed) followed by Bonferroni correction if needed, and non-parametric Kruskall-Wallis test to detect heterogeneous distribution between groups followed by Dunn's post test for multiple comparisons. were used whenever appropriate. Univariate Cox analysis and Fisher's exact test (two-tailed) were used to compare between survival distributions and rates and parametric Student's t test was used to compare between weight gains, whereas Chi-square test with Bonferroni correction and mixed model for repeated data using PROC GLIMMIX with sas 9.4 were used for all other phenotypic comparisons between groups of animals.

For experiment [3], the system named is CMV-infected pups. In words: Righting reflex sensorimotor test. Conditions: treated in utero vs untreated infected pups; P1-P20; p=0.025. As for the experimental part:
as §1
(§2) For righting reflex evaluation, rat pups were placed in a supine position, and the time required to flip to the prone position was measured. For the cliff aversion reflex, animals were placed with their forepaws overhanging the edge of a board; the time required to turn >90° away from the edge was recorded. […] Generalized tonic-clonic epileptic seizures were detected visually, usually after animal handling, especially during cage changing and behavioral testing. […] For each rat, the reference electrode was inserted beneath the pinna of the assessed ear, the positive electrode beneath the skin on the vertex of the head, the ground electrode on the animal's back. […] Impedances were monitored to be below 2000Ω. […]

Experiment [4] relates to CMV-infected pups. In words: Cliff aversion reflex sensorimotor test. The conditions noted are these: treated in utero vs untreated infected pups; P1-P20; p<10^-4. The procedure: as §1, §2
The test system of experiment [5] is CMV-infected pups. In words: Hindlimb paralysis, determined visually. As for the experimental part: as §1, §2
Experiment [6] concerns CMV-infected pups. As to the kind of experiment: Generalized tonic-clonic epileptic seizures, detected visually. The procedure:
as §1, §2

Experiment [7] relates to microglia. As to the kind of experiment: Flow cytometry of brain leukocytes (CD45, CD11b/c, RT1B) for microglia status. The procedure: as §1
Leukocytes from brains obtained from anesthetized P1 or P7 pups were isolated as previously described (9). 1 to 3×10^6 leukocytes were incubated with Zombie NIR Fixable Viability kit (1:200; Bio legend) for 20 min at RT. Fc receptors were blocked using mouse anti-rat CD32 antibody (FcγII receptor, clone D34-485) for 10 min. at 4° C. to prevent against nonspecific binding. Cells were then stained with antibodies against combinations of cell surface markers as previously listed and described (9). An average of 1.3×10^5 living singlet cells were analyzed per brain equivalent on a BD LSRFortessa cell cytometer and raw data were analyzed using FACSDiva V8.0 software (BD Biosciences).
(A flow cytometer gives signals particle by particle.)

Turning to `C[C@H]1c2cccc(O)c2C(=O)C2=C(O)[C@]3(O)C(=O)C(C(N)=O)=C(O)[C@@H](N(C)C)[C@@H]3[C@@H](O)[C@@H]21` [doxycycline], in the experiment with microglia [1], the “phagocytic activation index (PAI), ratio of Iba1+ Ed1+ cells to total Iba1+ cells” value worked out at 17.32%. In the experiment on CMV-infected pups [2] (dams treated per os throughout pregnancy, untreated 29.6%), the “infected pups survived at P20” value is recorded as 86.1%. Also, the “lower risk to postnatal death” value with CMV-infected pups [2] (first three postnatal weeks, treated in utero vs untreated CMV-infected, p=0.0006) was 5.1. The “success to righting, odds ratio” value in the experiment with CMV-infected pups [3] was found to be 2.6. In the experiment with CMV-infected pups [4], the “success to cliff aversion, odds ratio” value was determined as 9.9. Further, the “CMV-infected pups displaying hindlimb paralysis” value in the experiment on CMV-infected pups [5] (first three postnatal weeks, untreated 83.3%, p=0.001) is 50%. Moreover, the “drop in risk of hindlimb paralysis” value in the experiment with CMV-infected pups [5] (treated vs untreated, p=0.03) is listed as 6.2 fold. In addition, in the experiment on CMV-infected pups [6] (period of evaluation, treated in utero, p<10^-4), the “decrease in risk of epileptic seizures” value is 5.9 fold. In the experiment with CMV-infected pups [6] (untreated 24%, p=0.12), the “proportion of epileptic CMV-infected rats” value is 11%. For the same compound, the “proportion of reactive CD45low/int, CD11b/c+, RT1B+ microglia (fraction IV)” value in the experiment with microglia [7] (P7, after treatment discontinuation, untreated 58.93%) worked out at 55.76%. Further, the “proportion of MHC class II-positive reactive microglia (fraction IV: CD45low/int, CD11b/c+, RT1B+)” value in the experiment with microglia [7] (whole brain at P1, CMV untreated 13.98%, controls 0.73%) stood at 5.66%.
